{"source": "patent US10344287B2", "about": "“Recombinant microorganism producing quinolinic acid and method for producing quinolinic acid using same” (priority 2014, dated 2019)", "format_in_all_cases": "cell-based, E. coli", "key": {"[1]": {"tested_on": "MG1655-ΔnadC with pPro-nadB_pCJ1-nadA", "test": "Sensitivity to quinolinic acid of strain producing quinolinic acid (growth in LB+1% glucose broth)", "details": "33° C., 16 to 24 hours", "protocol": "(§1) First, to attenuate growth and development in the production strains, it was confirmed whether the addition of 13 g/L of quinolinic acid, in which KOH was titrated to a 7.0 pH, had influence or not. That is, a single colony of the strain producing quinolinic acid was inoculated in 25 mL of a LB+1% glucose broth (10 g/L of yeast extract, 5 g/L of NaCl, 10 g/L of tryptone, […] of kanamycin, and 10 g/L of glucose) by 1 platinum loop, and then, incubated with 250 rpm at 33° C. for 16 to 24 hours. Then, the OD600, the glucose consumption, and the residual quinolinic acid of the strain were measured."}, "[2]": {"tested_on": "W3110-ΔnadC with pPro-nadB_pCJ1-nadA", "test": "Sensitivity to quinolinic acid of strain producing quinolinic acid (growth in LB+1% glucose broth)", "protocol": "as §1"}, "[3]": {"tested_on": "W3110-ΔnadC with pPro-nadB_pCJ1-nadA and pCL1920", "test": "Sensitivity to quinolinic acid, control strain", "details": "13 g/L quinolinic acid in medium", "protocol": "as §1\n(§2) To figure out whether the KefA membrane protein influenced the introduction of quinolinic acid, under the same method as Example 2-4(1), the kefA gene-deficient strain and the kefA gene-enhanced strain were subjected to evaluation of sensitivity to quinolinic acid."}, "[4]": {"tested_on": "W3110-ΔnadC with pPro-nadB_pCJ1-nadA and pCL_PrhtB-kefA", "test": "Sensitivity to quinolinic acid, kefA-enhanced strain", "protocol": "as §1\nThe kefA gene obtained through PCR procedures was recovered through agarose gel elution, and then, was treated with restriction enzymes EcoRV and HindIII. Afterwards, the kefA gene was subjected to ligation into a pCL1920_pRhtB vector treated with restriction enzymes EcoRV and HindIII, leading to the expression of the kefA gene linked to a pRhtB promoter. The vector prepared therefrom was named a pCL_pRhtB-kefA vector.\nas §2"}, "[5]": {"tested_on": "W3110-ΔnadCΔkefA with pPro-nadB_pCJ1-nadA and pCL1920", "test": "Sensitivity to quinolinic acid, kefA-deficient strain", "protocol": "as §1, §2"}, "[6]": {"details": "13 g/L quinolinic acid in medium"}}, "data": [{"smiles": "O=C(O)c1cccnc1C(=O)O", "note": "[quinolinic acid, 2,3-pyridine-dicarboxylic acid]", "values": [{"measurement": "OD600", "setting": "[1]; 13 g/L of quinolinic acid in medium (pH 7.0 with KOH)", "value": 4.5}, {"measurement": "Glucose consumption", "setting": "[1]; 13 g/L of quinolinic acid in medium", "value": 6.0, "unit": "g/L"}, {"measurement": "OD600", "setting": "[2]; 13 g/L of quinolinic acid in medium (pH 7.0 with KOH), 33° C., 16 to 24 hours", "value": 4.9}, {"measurement": "Glucose consumption", "setting": "[2]; 13 g/L of quinolinic acid in medium, 33° C., 16 to 24 hours", "value": 6.0, "unit": "g/L"}, {"measurement": "growth and development and glucose-consumption speed, decreased to", "setting": "[2]; quinolinic acid additionally added to the medium (13 g/L) versus 0 g/L, strains of Table 5", "value": 40, "unit": "%"}, {"measurement": "Glucose consumption", "setting": "[3]", "value": 6.2, "unit": "g/L"}, {"measurement": "OD600", "setting": "[3]", "value": 5.0}, {"measurement": "Glucose consumption", "setting": "[4]; [6]", "value": 3.2, "unit": "g/L"}, {"measurement": "OD600", "setting": "[4]; [6]", "value": 2.1}, {"measurement": "growth and development and glucose consumption speed compared to control strain", "setting": "[4]; quinolinic acid additionally added to the medium, kefA-enhanced strain versus control strain", "value": 50, "unit": "%"}, {"measurement": "Glucose consumption", "setting": "[5]; [6]", "value": 8.0, "unit": "g/L"}, {"measurement": "OD600", "setting": "[5]; [6]", "value": 8.2}, {"measurement": "growth and development and glucose consumption speed compared to control strain", "setting": "[5]; quinolinic acid additionally added to the medium, kefA-deficient strain versus control strain", "value": "up to 110%"}]}]}
